Data from patent publication US20230241256A1, “NON-INTUITIVE COMBINATION OF DRUG DELIVERY CARRIERS OF THE SAME DRUG FOR SYNERGISTIC GROWTH DELAY OF SOLID TUMORS” (The Johns Hopkins University, priority 2020, published 2023).

How the values were obtained:
[1] = tested on: Trastuzumab-sensitive BT474 breast cancer cells; experiment: Clonogenic (colony) survival, BT474; assay type: cell-based, human; conditions: 6 hour incubation at 37° C.; pH 7.4 or 6.0; monolayers
Experimental: (§1) Cold conditions of liposomes and the antibody are indicated at zero radioactivity concentration. Error bars correspond to standard deviations of repeated measurements (4-6 samples per radioactivity concentration);
(§2) After incubation for 6 hours of cell monolayers with varying concentrations of radioactivity, the cells were washed and were plated in dishes to grow until formation of colonies, as described in detail in Prasad et al., 2021.

[2] = tested on: Trastuzumab-resistant BT474-R breast cancer cells; experiment: Clonogenic (colony) survival, BT474-R; assay type: cell-based, human; conditions: 6 hour incubation at 37° C.; pH 7.4 or 6.0; monolayers
Experimental: as §1, §2

## O=C([O-])CN1CCN(CC(=O)[O-])CCN(CC(=O)[O-])CCN(CC(=O)[O-])CC1.[225Ac+3] [free [^225Ac]Ac-DOTA]
[1]
  colony survival response: same sensitivity
[2]
  colony survival response: same sensitivity
